According to PubChem BioAssay (NCI):
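In this assay, cells in 96-well plates receive the compound at five concentrations for 48 hours. Endpoints are linearly interpolated between the surrounding concentrations. Here, GI50 denotes the concentration required for 50% inhibition of growth. TGI denotes the concentration required for complete inhibition of growth.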

Legend:
Assay in all cases: NCI tumour cell line growth inhibition, 48 h
[1] = tested on: HCT-116 colon
[2] = tested on: IGROV1 ovarian
[3] = tested on: M14 melanoma
[4] = tested on: NCI-H522 lung
[5] = tested on: RPMI-8226 leukemia
[6] = tested on: SF-268 CNS
[7] = tested on: SF-295 CNS
[8] = tested on: SW-620 colon
[9] = tested on: TK-10 renal
[10] = tested on: UACC-257 melanoma

SMILES	GI50 [1]	TGI [1]	GI50 [2]	TGI [2]	GI50 [3]	TGI [3]	GI50 [4]	TGI [4]	GI50 [5]	TGI [5]	GI50 [6]	TGI [6]	GI50 [7]	TGI [7]	GI50 [8]	TGI [8]	GI50 [9]	TGI [9]	GI50 [10]	TGI [10]
Cc1cc(O)cc(C)c1/C=C/c1cncc(C(=O)N(C)C)c1	> 25 µM	> 25 µM	> 25 µM	> 25 µM	> 25 µM	> 25 µM	> 25 µM	> 25 µM	> 25 µM	> 25 µM	> 25 µM	> 25 µM	> 14.8 µM	> 25 µM	> 25 µM	> 25 µM	> 25 µM	> 25 µM	> 25 µM	> 25 µM
Cc1c2ncccc2c(C)c2c1[nH]c1ccccc12		17.3 µM		29.4 µM		44.9 µM		26.7 µM		26.2 µM		34.8 µM		21.9 µM		28 µM		31.7 µM		32 µM
C=C1C(=O)O[C@H]2[C@H]1CC/C(COC(=O)c1ccc(C(=O)O)s1)=C\CC[C@@]1(C)O[C@@H]21	0.715 µM	2.03 µM	2.16 µM	5.82 µM	1.52 µM	3.43 µM	1.93 µM	3.87 µM	1.97 µM	5.98 µM	2.08 µM	4.69 µM	5.65 µM	18.7 µM	1.61 µM	3.79 µM	1.64 µM	3.44 µM	2.18 µM	5.47 µM
CC(SC1=CC(=O)c2c(O)ccc(O)c2C1=O)C(=O)O (stereo not given)		> 72.3 µM		> 68.6 µM		> 75.8 µM		9.79 µM		> 96.2 µM		> 75.1 µM		> 100 µM		> 55.6 µM		> 82.2 µM		> 66 µM
[Cl][Sn]([c]1ccccc1)[c]1ccccc1	6.91 µM	22.9 µM	17.7 µM	43.7 µM	8.24 µM	24.4 µM	0.352 µM	1.89 µM	2.09 µM	6.14 µM	4.1 µM	16.1 µM	19.2 µM	35.2 µM	1.95 µM	4.49 µM	3.17 µM	8.57 µM	8.25 µM	23.1 µM
O=C(O)C(Cc1ccc(O)c([N+](=O)[O-])c1)N1C(=O)c2ccccc2C1=O (stereo not given)		> 100 µM		> 100 µM		> 100 µM		> 100 µM		> 100 µM		> 100 µM		> 100 µM		> 100 µM		> 100 µM		> 100 µM
O=C(N/N=C/c1ccc(F)cc1)c1[nH]c2ccc(I)cc2c1-c1ccccc1	0.325 µM	1.35 µM	0.45 µM	32.5 µM	0.372 µM	7.85 µM	0.257 µM	1.74 µM	0.191 µM	0.639 µM	0.772 µM	> 80.7 µM	0.27 µM	1.5 µM	0.4 µM	> 100 µM	19.7 µM	> 100 µM	3.73 µM	> 96.6 µM
Nc1ncnc2c1ncn2C1OC(C(=O)O)C(O)C1O (stereo not given)		> 100 µM		> 100 µM		> 100 µM		> 100 µM		> 100 µM		> 100 µM		> 100 µM		> 100 µM		> 100 µM		> 100 µM
OC1CCC(C2C3CCCCC3C3CCCCC3C2C2CCC(O)CC2)CC1 (stereo not given)		> 100 µM		12.8 µM		> 100 µM		6.37 µM		59.1 µM		14.5 µM		27.3 µM		19.6 µM		34.9 µM		33.4 µM
c1cncc(C2c3[nH]c4ccccc4c3CCN2CCN2CCCCC2)c1 (stereo not given)		> 100 µM		> 100 µM		32.3 µM		> 100 µM		> 100 µM		> 100 µM		> 100 µM		> 100 µM		> 100 µM		99.4 µM
CCc1ccc(C2=C(O)C(=O)C(c3ccc(CC)cc3)=C(O)C2=O)cc1	2.24 µM	6 µM	1.59 µM	3.54 µM	1.74 µM	4.54 µM	1.51 µM	4.61 µM	1.81 µM	6.43 µM	2.14 µM	6.44 µM	1.93 µM	6.7 µM	2.87 µM	10.4 µM	2.26 µM	8.61 µM	2.95 µM	11.1 µM
O=C1C=C(c2cc(Br)c(O)c(Br)c2)/C(=C/c2cc(Br)c(O)c(Br)c2)O1	14.8 µM	43.8 µM	17.8 µM	> 75 µM	17.8 µM	> 75 µM	30.4 µM	> 75 µM	22.2 µM	66.7 µM	30.5 µM	> 75 µM	29.4 µM	> 75 µM	29.7 µM	> 75 µM	35.8 µM	> 75 µM	> 75 µM	> 75 µM
CCCN(CCCCC(NC(C)=O)C(=O)NCc1ccccc1)C(=O)NC (stereo not given)		> 100 µM		> 100 µM		> 100 µM		> 100 µM		> 100 µM		> 100 µM		> 100 µM		> 100 µM		> 100 µM		> 100 µM
COC(=O)/C(=N/NC(C)(C)C)C(C(=O)C=C(C)C)C(=O)C(=O)Nc1ccc(Cl)cc1C (stereo not given)		> 100 µM		> 100 µM		> 100 µM		> 100 µM		> 100 µM		> 100 µM		> 100 µM		> 100 µM		> 100 µM		> 100 µM
CC(=O)O/C(C)=C\C(=O)O/N=C(\N)c1ccc(C)cc1		43.1 µM		> 100 µM		93.1 µM		49.1 µM		> 100 µM		91.6 µM		> 100 µM		> 100 µM		> 100 µM		> 100 µM
O=Nc1c2cccnc2n2nnc3ccc(Cl)cc3c12	0.316 µM	6.11 µM	1.25 µM	7.69 µM	2.84 µM	8.36 µM	1.14 µM	3.38 µM	0.258 µM	1.7 µM	1.8 µM	9.4 µM	4.24 µM	16.2 µM	0.331 µM	1.33 µM	1.66 µM	7.6 µM	5.87 µM	23.3 µM
